From ChEMBL document CHEMBL1201862, “PubChem BioAssay data set” (2004)
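Cells were grown in 96-well plates and exposed to each compound for 48 hours at five concentrations; endpoints were interpolated linearly between bracketing concentrations, or set to the highest concentration if not reached. The concentration for 50% growth inhibition is given as GI50.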 Active and inactive are the calls of the source. No stated cut-off is given here; in the data, active = GI50 up to about 1.1 µM and inactive = higher.

Legend:
Test in all cases: NCI-60 cell line screen, 48 h
[1] = tested on: DMS-114
[2] = tested on: SK-OV-3
[3] = tested on: SK-MEL-5
[4] = tested on: TK-10
[5] = tested on: K562
[6] = tested on: SF-268
[7] = tested on: A549
[8] = tested on: OVCAR-8
[9] = tested on: SR
[10] = tested on: HCC 2998
[11] = tested on: IGROV-1
[12] = tested on: Malme-3M
[13] = tested on: KM12
[14] = tested on: HCT-15
[15] = tested on: HL-60
[16] = tested on: NCI-H522
[17] = tested on: DMS-273
[18] = tested on: SK-MEL-2
[19] = tested on: COLO 205
[20] = tested on: M19-MEL
[21] = tested on: U-251
[22] = tested on: OVCAR-4
[23] = tested on: OVCAR-5
[24] = tested on: EKVX
[25] = tested on: SF-539
[26] = tested on: 786-0
[27] = tested on: CAKI-1
[28] = tested on: SNB-75
[29] = tested on: OVCAR-3
[30] = tested on: HT-29
[31] = tested on: UACC-62
[32] = tested on: HCT-116
[33] = tested on: UO-31
[34] = tested on: SNB-78
[35] = tested on: RXF 631
[36] = tested on: CCRF-CEM
[37] = tested on: HOP-18
[38] = tested on: SF-295
[39] = tested on: LXFL 529
[40] = tested on: NCI-H226
[41] = tested on: NCI-H460
[42] = tested on: NCI-H23
[43] = tested on: KM-20L2
[44] = tested on: ACHN
[45] = tested on: M14
[46] = tested on: RPMI-8226
[47] = tested on: DLD-1
[48] = tested on: SN12C
[49] = tested on: HOP-92
[50] = tested on: A498
[51] = tested on: SK-MEL-28
[52] = tested on: MOLT-4
[53] = tested on: UACC-257
[54] = tested on: HOP-62
[55] = tested on: SW-620
[56] = tested on: RXF 393
[57] = tested on: LOX IMVI
[58] = tested on: SNB-19

Measured: GI50

NCCCNC(=O)c1csc(NC(=O)c2csc(NC(=O)CCCN)n2)n1
> 100 µM: [14]
inactive: [1] > 100 µM | [2] > 100 µM | [3] > 100 µM | [4] > 100 µM | [5] > 100 µM | [6] > 100 µM | [7] > 100 µM | [8] > 100 µM | [9] > 100 µM | [10] > 100 µM | [11] > 100 µM | [12] > 100 µM | [13] > 100 µM | [15] > 100 µM | [16] > 100 µM | [17] > 100 µM | [18] > 100 µM | [19] > 100 µM | [20] > 100 µM | [21] > 100 µM | [22] 18.7 µM | [23] > 100 µM | [24] > 100 µM | [25] > 100 µM | [26] > 100 µM | [27] > 100 µM | [28] > 100 µM | [29] > 100 µM | [30] > 100 µM | [31] > 100 µM | [32] > 100 µM | [33] > 100 µM | [34] > 100 µM | [35] > 100 µM | [36] > 100 µM | [37] > 100 µM | [38] > 100 µM | [39] > 100 µM | [40] > 100 µM | [41] > 100 µM | [42] > 100 µM | [43] > 100 µM | [44] > 100 µM | [45] > 100 µM | [46] > 100 µM | [47] > 100 µM | [48] > 100 µM | [49] > 100 µM | [50] > 100 µM | [51] > 100 µM | [52] > 100 µM | [53] > 100 µM | [54] > 100 µM

CN[C@@H](C)[C@H](N)c1ccccc1
> 100 µM: [14]
inactive: [2] > 100 µM | [3] > 100 µM | [4] > 100 µM | [5] > 100 µM | [7] > 100 µM | [8] > 100 µM | [10] > 100 µM | [11] > 100 µM | [13] > 100 µM | [16] > 100 µM | [17] > 100 µM | [19] > 100 µM | [55] > 100 µM | [56] > 100 µM | [21] > 100 µM | [24] > 100 µM | [25] > 100 µM | [26] > 100 µM | [27] > 100 µM | [28] > 100 µM | [29] > 100 µM | [30] > 100 µM | [31] > 100 µM | [32] > 100 µM | [33] > 100 µM | [34] > 100 µM | [35] > 100 µM | [36] > 100 µM | [37] > 100 µM | [38] > 100 µM | [39] > 100 µM | [40] > 100 µM | [41] > 100 µM | [42] > 100 µM | [44] > 100 µM | [57] > 100 µM | [45] > 100 µM | [46] > 100 µM | [47] > 100 µM | [48] > 100 µM | [49] > 100 µM | [50] > 100 µM | [51] > 100 µM | [52] > 100 µM | [53] > 100 µM

CCCCCCCC[N+](C)(C)Cc1ccc(C[N+](C)(C)CCCCCCCC)cc1
inactive: [1] 8.67 µM | [2] 69.7 µM | [3] 36.7 µM | [4] 86.9 µM | [5] 28.4 µM | [6] > 100 µM | [7] 32.8 µM | [8] 15.6 µM | [9] > 100 µM | [10] 31.5 µM | [11] 13.4 µM | [12] 95.3 µM | [13] 11.7 µM | [15] 36.4 µM | [16] 5.58 µM | [17] 3.84 µM | [18] 14.9 µM | [19] 1.76 µM | [55] 91.2 µM | [56] 78.7 µM | [20] 31.3 µM | [21] 6.53 µM | [22] 18.6 µM | [23] > 100 µM | [24] > 100 µM | [26] > 100 µM | [27] 45.4 µM | [28] 15.8 µM | [29] 29.6 µM | [30] 6.03 µM | [31] 77.8 µM | [32] > 100 µM | [33] > 100 µM | [34] 44.3 µM | [35] > 100 µM | [36] > 100 µM | [37] > 100 µM | [38] 63.4 µM | [39] 14.6 µM | [40] 34.5 µM | [41] 28.6 µM | [42] 4.55 µM | [43] 7.71 µM | [44] > 100 µM | [57] 84.5 µM | [45] 85.9 µM | [46] 90.2 µM | [47] 35.4 µM | [48] 7.33 µM | [49] 32.7 µM | [50] 38.1 µM | [51] > 100 µM | [52] 43.9 µM | [53] 41.9 µM | [54] 4.11 µM | [58] 24.6 µM
> 100 µM: [14]

CN(C)CCNC(=O)c1cccc2nc3ccc4cccnc4c3nc12
inactive: [37] 1.78 µM
active: [1] 0.533 µM | [2] 0.469 µM | [3] 0.343 µM | [4] 0.107 µM | [5] 0.346 µM | [6] 0.298 µM | [7] 0.284 µM | [8] 0.194 µM | [10] 0.635 µM | [11] 0.359 µM | [13] 0.564 µM | [15] 0.348 µM | [17] 0.118 µM | [18] 0.895 µM | [19] 0.232 µM | [55] 0.0675 µM | [56] 0.167 µM | [20] 0.43 µM | [21] 0.405 µM | [22] 0.468 µM | [23] 0.916 µM | [24] 0.507 µM | [25] 0.19 µM | [26] 0.454 µM | [27] 0.224 µM | [28] 0.507 µM | [29] 0.61 µM | [30] 0.208 µM | [31] 0.457 µM | [32] 0.0467 µM | [33] 0.205 µM | [34] 0.482 µM | [35] 0.132 µM | [36] 0.213 µM | [38] 0.644 µM | [40] 0.319 µM | [41] 0.0565 µM | [42] 0.294 µM | [44] 0.126 µM | [57] 0.24 µM | [45] 0.631 µM | [47] 0.24 µM | [48] 0.172 µM | [49] 0.351 µM | [50] 0.214 µM | [51] 0.944 µM | [52] 0.0441 µM | [53] 0.447 µM | [54] 0.393 µM | [58] 0.362 µM
0.209 µM: [14]

COC(=O)C1Cc2c(n(Cc3ccccc3)c3ccccc23)C(CCC(=O)O)N1C(C)C (centres undefined)
> 100 µM: [14]
inactive: [1] > 100 µM | [2] > 100 µM | [3] > 100 µM | [4] > 100 µM | [5] > 100 µM | [6] > 100 µM | [7] > 100 µM | [8] > 100 µM | [9] > 100 µM | [10] > 100 µM | [11] > 100 µM | [12] > 100 µM | [13] > 100 µM | [15] > 100 µM | [16] > 100 µM | [17] > 100 µM | [18] > 100 µM | [19] > 100 µM | [55] > 100 µM | [20] > 100 µM | [21] > 100 µM | [22] > 100 µM | [23] > 100 µM | [24] > 100 µM | [25] > 100 µM | [26] > 100 µM | [27] > 100 µM | [28] > 100 µM | [29] > 100 µM | [30] > 100 µM | [31] > 100 µM | [32] > 100 µM | [33] > 100 µM | [34] > 100 µM | [35] > 100 µM | [36] > 100 µM | [37] > 100 µM | [38] > 100 µM | [39] > 100 µM | [40] > 100 µM | [41] > 100 µM | [42] > 100 µM | [43] > 100 µM | [44] > 100 µM | [57] > 100 µM | [45] > 100 µM | [47] > 100 µM | [48] > 100 µM | [49] > 100 µM | [50] > 100 µM | [51] > 100 µM | [52] > 100 µM | [53] > 100 µM | [58] > 100 µM
